The conditions of test [1]: in vivo; cited from earlier work.
For test [2] the following is noted: in vivo; cited from earlier work. This is another data set of the same source.
The subject of test [3] is neutrophil. The conditions noted are these: cited from earlier work.
Test [4] relates to neutrophil. Particulars: cited from earlier work. The source holds these as a separate data set.
For a further test, the target named is p110δ (Homo sapiens (Human), UniProt O00329). The conditions noted are these: cited from earlier work.
Chain of p110δ (O00329 whole entry, looked up, species assumed): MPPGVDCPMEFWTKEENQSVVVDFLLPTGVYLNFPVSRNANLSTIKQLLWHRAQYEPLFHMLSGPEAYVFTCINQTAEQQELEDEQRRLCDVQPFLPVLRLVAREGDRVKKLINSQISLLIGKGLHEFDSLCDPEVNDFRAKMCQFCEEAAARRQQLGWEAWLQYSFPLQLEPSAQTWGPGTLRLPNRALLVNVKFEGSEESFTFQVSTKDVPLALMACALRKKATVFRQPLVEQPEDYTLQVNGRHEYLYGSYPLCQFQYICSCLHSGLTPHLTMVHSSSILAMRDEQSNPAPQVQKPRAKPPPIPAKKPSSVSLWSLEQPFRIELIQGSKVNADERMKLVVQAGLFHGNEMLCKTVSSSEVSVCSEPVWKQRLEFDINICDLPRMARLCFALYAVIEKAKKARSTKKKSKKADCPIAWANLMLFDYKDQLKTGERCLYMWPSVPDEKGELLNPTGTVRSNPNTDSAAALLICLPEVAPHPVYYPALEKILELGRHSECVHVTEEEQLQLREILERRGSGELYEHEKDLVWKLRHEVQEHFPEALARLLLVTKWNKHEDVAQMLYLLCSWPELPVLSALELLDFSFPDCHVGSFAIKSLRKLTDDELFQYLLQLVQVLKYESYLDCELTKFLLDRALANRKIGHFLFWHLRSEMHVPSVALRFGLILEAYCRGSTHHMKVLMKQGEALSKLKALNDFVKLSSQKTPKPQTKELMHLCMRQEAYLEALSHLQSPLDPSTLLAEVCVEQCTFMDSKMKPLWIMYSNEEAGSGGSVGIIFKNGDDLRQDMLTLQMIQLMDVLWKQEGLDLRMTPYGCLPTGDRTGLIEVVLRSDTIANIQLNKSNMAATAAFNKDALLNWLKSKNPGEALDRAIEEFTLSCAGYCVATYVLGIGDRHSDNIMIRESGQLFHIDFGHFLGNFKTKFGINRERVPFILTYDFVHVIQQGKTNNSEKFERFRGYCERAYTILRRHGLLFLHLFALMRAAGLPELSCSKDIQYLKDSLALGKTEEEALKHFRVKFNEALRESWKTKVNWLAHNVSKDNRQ
Chain of p110δ (P27986 whole entry partner, looked up, species assumed): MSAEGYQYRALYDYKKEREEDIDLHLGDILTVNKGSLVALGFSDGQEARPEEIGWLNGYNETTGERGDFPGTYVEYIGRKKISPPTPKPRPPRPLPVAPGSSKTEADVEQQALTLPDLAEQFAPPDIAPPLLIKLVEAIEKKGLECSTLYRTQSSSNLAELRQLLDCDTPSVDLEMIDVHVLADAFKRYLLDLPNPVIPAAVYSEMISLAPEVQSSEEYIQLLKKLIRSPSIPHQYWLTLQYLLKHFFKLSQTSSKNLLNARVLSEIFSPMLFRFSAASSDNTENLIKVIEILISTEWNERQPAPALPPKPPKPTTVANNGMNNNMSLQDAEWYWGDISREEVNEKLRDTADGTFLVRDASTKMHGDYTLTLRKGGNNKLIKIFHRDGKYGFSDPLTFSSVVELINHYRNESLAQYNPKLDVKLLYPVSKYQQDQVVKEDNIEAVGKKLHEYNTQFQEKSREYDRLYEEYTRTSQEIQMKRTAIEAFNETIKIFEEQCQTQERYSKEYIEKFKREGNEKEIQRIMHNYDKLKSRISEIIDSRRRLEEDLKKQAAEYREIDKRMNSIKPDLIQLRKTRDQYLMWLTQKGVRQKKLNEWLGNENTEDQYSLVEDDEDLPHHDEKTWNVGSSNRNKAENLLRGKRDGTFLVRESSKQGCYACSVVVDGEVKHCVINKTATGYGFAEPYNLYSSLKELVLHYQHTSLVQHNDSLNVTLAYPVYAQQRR
The conditions of test [5]: ovalbumin-induced airway inflammation; cited from earlier work.
A further test deals with protein kinases. The conditions noted are these: cited from earlier work.
A further test concerns the target PI3Kδ (Homo sapiens (Human), UniProt O00329). The test is described as follows: PI3Kδ Alphascreen assay. The format is biochemical. Here is the method: Full length p110 subunits of PI3k α, β and δ, N-terminally labeled with polyHis tag, were coexpressed with p85 with Baculo virus expression vectors in sf9 insect cells. P110/p85 heterodimers were purified by sequential Ni-NTA, Q-HP, Superdex-100 chromatography. Purified α, β and δ isozymes were stored at −20° C. in 20 mM Tris, pH 8, 0.2M NaCl, 50% glycerol, 5 mM DTT, 2 mM Na cholate. […] The y isozyme was purified by sequential Ni-NTA, Superdex-200, Q-HP chromatography. The γ isozyme was stored frozen at −80° C. in NaH2PO4, pH 8, 0.2M NaCl, 1% ethylene glycol, 2 mM β-mercaptoethanol.
A PI3K Alphascreen® assay (PerkinElmer, Waltham, Mass.) was used to measure the activity of a panel of four phosphoinositide 3-kinases: PI3Kα, PI3Kβ, PI3Kγ, and PI3Kδ. Enzyme reaction buffer was prepared using sterile water (Baxter, Deerfield, Ill.) and 50 mM Tris HCl pH 7, 14 mM MgCl2, 2 mM sodium cholate, and 100 mM NaCl. 2 mM DTT was added fresh the day of the experiment. The Alphascreen buffer was made using sterile water and 10 mM Tris HCl pH 7.5, 150 mM NaCl, 0.10% Tween 20, and 30 mM EDTA. 1 mM DTT was added fresh the day of the experiment. Compound source plates used for this assay were 384-well Greiner clear polypropylene plates containing test compounds at 5 mM and diluted 1:2 over 22 concentrations. Columns 23 and 24 contained only DMSO as these wells comprised the positive and negative controls, respectively. Source plates were replicated by transferring 0.5 uL per well into 384-well Optiplates (PerkinElmer, Waltham, Mass.).
Each PI3K isoform was diluted in enzyme reaction buffer to 2× working stocks. […] PI(4,5)P2 (Echelon Biosciences, Salt Lake City, Utah) was diluted to 10 μM and ATP was diluted to 20 μM. This 2× stock was used in the assays for PI3Kα and PI3Kβ. For assay of PI3Kγ and PI3Kδ, PI(4,5)P2 was diluted to 10 μM and ATP was diluted to 8 μM to prepare a similar 2× working stock. Alphascreen reaction solutions were made using beads from the anti-GST Alphascreen kit (PerkinElmer, Waltham, Mass.). Two 4× working stocks of the Alphascreen reagents were made in Alphascreen reaction buffer. In one stock, biotinylated-IP4 (Echelon Biosciences, Salt Lake City, Utah) was diluted to 40 nM and streptavadin-donor beads were diluted to 80 μg/mL. In the second stock, PIP3-binding protein (Echelon Biosciences, Salt Lake City, Utah) was diluted to 40 nM and anti-GST-acceptor beads were diluted to 80 μg/mL.
10 μL/well of the appropriate substrate 2× stock (containing 20 μM ATP for the PI3Kα and β assays and containing 8 μM ATP for the PI3Kγ and δ assays) was then added to Columns 1-24 of all plates. Plates were then incubated at room temperature for 20 minutes. In the dark, 10 μL/well of the donor bead solution was added to columns 1-24 of the plates to quench the enzyme reaction. The plates were incubated at room temperature for 30 minutes. Still in the dark, 10 μL/well of the acceptor bead solution was added to columns 1-24 of the plates. The plates were then incubated in the dark for 1.5 hours. The plates were read on an Envision multimode Plate Reader (PerkinElmer, Waltham, Mass.) using a 680 nm excitation filter and a 520-620 nm emission filter.
Background: In Alpha technology, singlet oxygen from a donor bead excites a nearby acceptor bead.

As usually defined, the pKi is the negative decadic logarithm of the Ki, by convention in mol/L. A low value points to a high Ki.

The structures appear in SMILES notation. pKi: −log10 of the molar value.

Chain of PI3Kδ (O00329 whole entry): as the sequence (O00329 whole entry, looked up, species assumed) above
Chain of PI3Kδ (P27986 whole entry partner): as the sequence (P27986 whole entry partner, looked up, species assumed) above

For `O=C1NC(=O)/C(=C\c2ccc3nccnc3c2)S1` [AS 605240], the “efficacy in a mouse model of rheumatoid arthritis” value in test [1] was “efficacious”. The “onset of disease in a model of systemic lupus erythematosis” value in test [2] is on record as “delay onset of disease”.
For `COC[C@H]1OC(=O)c2coc3c2[C@@]1(C)C1=C(C3=O)[C@@H]2CCC(=O)[C@@]2(C)C[C@H]1OC(C)=O` [wortmannin], the superoxide release entry in the test with neutrophil [3] is recorded as “block”. Further, the neutrophil migration entry in the test with neutrophil [4] is “block”.
Take `Cc1ccccc1-n1c(Cn2cnc3c(N)ncnc32)nc2cccc(C)c2c1=O` [IC87114]: at p110δ, the “inhibition of p110δ” value is listed as “high nanomolar range (triple digit)”. Further, the “inflammation and disease in a murine model of asthma” value in test [5] was “significantly ameliorate inflammation and disease”. Further, the “activity against any protein kinases tested” value in the test with protein kinases was “no activity”.
With `O=c1cc(N2CCOCC2)oc2c(-c3ccccc3)cccc12` [LY294002], the superoxide release entry in the test with neutrophil [3] is listed as “block”. Moreover, the neutrophil migration result with neutrophil [4] is on record as “block”.
`Cc1cccc2nc([C@H](C)Nc3ncnc4[nH]cnc34)c(-c3cccc(F)c3)c(=O)n12` [3-(3-fluorophenyl)-6-methyl-2-((1S)-1-(9H-purin-6-ylamino)ethyl)-4H-pyrido[1,2-a]pyrimidin-4-one] had a pKi on PI3Kδ of 7.64.
Compound `Cc1cccc2nc(C(C)Nc3ncnc(N)c3C#N)c(-c3ccccn3)c(=O)n12` (racemic) [4-amino-6-((1-(6-methyl-4-oxo-3-(2-pyridinyl)-4H-pyrido-[1,2-a]pyrimidin-2-yl)ethyl)amino)-5-pyrimidinecarbonitrile] showed a negative-log Ki (pKi) on PI3Kδ of 7.97. Compared with the last compound, the pKi is 0.33 log units higher.
